According to US10189796B2, “[4-(1,3,3-trimethyl-2-oxo-3,4-dihydro-1H-quinoxalin-7-yl)phenoxy]ethyloxy compound or salt thereof” (SANTEN PHARMACEUTICAL CO., LTD., priority 2015, dated 2019):

Experiments:
[1] = test system: TNFα production in rat whole blood; test: TNFα production inhibitory action evaluation test (LPS stimulation ex vivo, ELISA); type: cell-based; conditions: 20 hours, 200 μM test compound solution 10 μL/well, DEX treated group = 100, read-out: TNFα production inhibitory ratio (% DEX)
Method: In order to evaluate an action of the present compound as a GR agonist, a TNFα production inhibitory action in rat whole blood after LPS stimulation ex vivo was investigated. For the measurement of the TNFα production amount, the ELISA method (manufactured by R&D Systems, Cat No. RTA00) was used, and a procedure was carried out according to the protocol attached thereto. Hereinafter, the specific method will be described.
LPS solution: LPS was dissolved in PBS(−) and diluted with RPMI 1640 to prepare an LPS solution with a concentration of 2 μg/mL.
After the test compound was dissolved in dimethylsulfoxide, the solution was diluted with PBS(−) to prepare 200 μM of a test compound solution. In addition, DEX was similarly dissolved to prepare 200 μM of a DEX solution, and a TNFα production inhibitory ratio of DEX was measured, and used for calculation of Efficacy (% DEX).
• 1) Blood was collected from 3 to 5 rats using an injection syringe treated with heparin from the abdominal aorta under isoflurane anesthesia. The rats confirmed death after lething the whole blood. • 2) The blood of 3 to 5 rats pooled in a 96-well round bottom culture plate was seeded at each 180 μL/well. • 3) It was cultured (37° C., 5% CO2, 95% air) for about 1 hour. • 4) The test compound solution was added each 10 μL/well, and cultured for 1 hour. • 5) LPS solution was added each 10 μL/well. • 6) The sample in which 2% dimethylsulfoxide-containing PBS(−) was added with each 10 μL/well in place of each test compound solution, and RPMI 1640 was added with each 10 μL/well in place of the LPS solution was made a negative control. • 7) The sample in which 2% dimethylsulfoxide-containing PBS(−) was added with each 10 μL/well in place of each test compound solution was made a positive control. • 8) After completion of 20 hours cultivation, the supernatant was recovered and the amount of TNFα released in the supernatant was measured by using an ELISA Kit. • 9) The TNFα production inhibitory ratio was calculated according to the following calculation formula. (Calculation of TNFα Production Inhibitory Ratio)
TNFα production inhibitory ratio (%) was calculated according to the following formula. TNFα production inhibitory ratio (%)=100×{1−(TNFα production amount of each test compound solution−average value of TNFα production amount of negative control group)/(average value of TNFα production amount of positive control group−average value of TNFα production amount of negative control group)}(%)
(§1) Further, a TNFα production inhibitory ratio (Efficacy (% DEX)) when the DEX treated group was made 100 was calculated. Efficacy (% DEX)=100×{(average value of TNFα production inhibitory ratio of each test compound solution)/(average value of TNFα production inhibitory ratio of DEX treated group)}(%)

[2] = molecular target: Recombinant human GR (Homo sapiens (Human), UniProt P04150); test: GR competitive binding assay by fluorescence polarization; conditions: 20 μM test compound solution, 10 μL/well; 2 hours; DEX positive control; read-out: GR binding rate (%)
Method: In order to evaluate a binding activity of the present compound to GR, a GR receptor competitor assay was carried out by a fluorescence polarization method. In the assay, a GR competitive binding assay kit (manufactured by Invitrogen, cat No. P2816) was used for the assay, and a procedure was carried out according to the protocol attached to the kit. Hereinafter, the specific method will be described.
GR screening buffer: A buffer containing 10 mM of potassium phosphate (pH 7.4), 20 mM of sodium molybdate (Na2MoO4), 0.1 mM of ethylene diamine tetraacetic acid (EDTA), 5 mM of dithiothreitol (DTT), 0.1 mM of stabilizing peptide and 2% of dimethylsulfoxide was prepared.
4×GS1 solution: Fluormone™ GS1, which is a fluorescent glucocorticoid ligand, was diluted with GR screening buffer, whereby a 4 nM solution was prepared.
4×GR solution: Recombinant human GR was diluted with GR screening buffer, whereby a 16 nM solution was prepared.
After a test compound was dissolved in dimethylsulfoxide, the resulting solution was diluted with GR screening buffer, whereby a 20 μM test compound solution was prepared. In addition, DEX was similarly dissolved, whereby a DEX solution with a […] concentration was prepared, and the solution was diluted with GR screening buffer, whereby a 2 mM DEX solution was prepared. DEX was used as positive control.
• 1) The test compound solution was added in an amount of 10 μL into each well of a 384-well plate. • 2) 4×GS1 solution and 4×GR solution were added in an amount of 5 μL into each well, respectively. • 3) GR screening buffer was added in an amount of 10 μL/well into each well in place of the test compound solution, which was made a negative control. • 4) A 2 mM of DEX was added in an amount of 10 μL/well into each well in place of the test compound solution, which was made a positive control. • 5) The plate was incubated in a dark place at room temperature for 2 hours, and fluorescence polarization of each well was measured. (Calculation Equation of GR Binding Ratio)
A GR binding ratio (%) was calculated from the following equation. GR binding ratio (%)=100×{1−(fluorescence polarization of test compound solution−average value of fluorescence polarization of positive control solution)/(average value of fluorescence polarization of negative control solution−average value of fluorescence polarization of positive control solution)}

[3] = test system: VEGF-induced retinal elevated vascular permeability model of rabbits; test: Retinal vascular permeability model evaluation test; type: in vivo, rabbit; conditions: 2% 50 μL/base agent A, intravitreal once; 4 weeks before VEGF induction
Method: In order to evaluate the inhibitory effect of the present compounds on VEGF-induced retinal vascular permeability, the inhibitory effect of the present compound on retinal vascular permeability in a VEGF-induced retinal elevated vascular permeability model of rabbits was evaluated. Incidentally, this effect was evaluated by calculating a leaked amount of the fluorescent dye of the base agent administered group (non-induced group), a leaked amount of the fluorescent dye of the base agent administered group (control group) and a leaked amount of the fluorescent dye of the test compound administered group.
To the test compound was added 0.01% Polysorbate 80/0.5% sodium carboxymethyl cellulose/PBS (hereinafter referred to as “base agent A”.), whereby 2% (W/V) or 8% (W/V) of the test compound suspension was prepared. Or else, to the test compound was added PEG400 (hereinafter referred to as “base agent B”.), whereby 6% (W/W) of the test compound solution was prepared.
VEGF solution: humanVEGF165 was dissolved in PBS to prepare 50 μg/mL of VEGF solution.
• 1) A mixed solution (1 mL/kg) of 5% ketamine hydrochloride injection solution and 2% xylazine hydrochloride injection solution with the ratio of 7:1 was intramuscularly administered to rabbits (Dutch male rabbits), and the rabbits were anesthetized. • 2) Tropicamide-phenylephrine hydrochloride ophthalmic solution (trade name: Midlin P) was eye dropped to maintain pupillary mydriasis, and then, the VEGF solution was intravitreally administered. Incidentally, PBS was intravitreally administered to the base agent administration group (non-induced group). • 3) Fluorescein was intravenously administered 2 days after intravitreal administration of VEGF. Two hours after the intravenous administration of fluorescein, an amount of the leaked fluorescent dye in the vitreous body was measured by using a fluorophotometer. (Test Method) • 1) One week before or 4 weeks before VEGF-induction, 50 μL of the test compound suspension (prepared by the base agent A) was intravitreally administered once, or 5 μL of the test compound solution (prepared by the base agent B) was intravitreally administered once. Incidentally, in the base agent administered group (non-induced group) and the base agent administered group (control group), the base agent A was used in place of the test compound suspension, or the base agent B was used in place of the test compound solution. • 2) Inhibition ratio of elevated retinal vascular permeability was calculated according to the following calculation formula. (Calculation Formula) Inhibitory ratio (%) on elevated retinal vascular permeability of the test compound administered group=100×{1−(average value of a leaked fluorescent dye amount in the test compound administered group−average value of a leaked fluorescent dye amount in the base agent administered group (non-induced group))/(average value of a leaked fluorescent dye amount in the base agent administered group (control group)−average value of a leaked fluorescent dye amount of the base agent administered group (non-induced group))}

[4] = test system: IL-6 production in human corneal epithelium cell line (HCE-T); test: IL-6 production inhibitory action evaluation test (LPS stimulation, HTRF); type: cell-based; conditions: 4 hours
Method: To evaluate the action of the present compounds as a GR agonist, IL-6 production inhibitory action in human corneal epithelial cell line after LPS stimulation was examined The IL-6 production was measured by using the HTRF method (Cat No. 62IL6PEB manufactured by Cisbio Bioassays, Inc.) according to the attached protocol. The specific method is described below.
LPS solution: After dissolving LPS in PBS(−), the resulting solution was diluted with a culture solution, whereby an LPS solution with a 1 μg/mL concentration was prepared.
After dissolving the test compound in dimethylsulfoxide, the solution was diluted with a 10% FBS-DMEM/Ham's F12 medium, whereby a 100 μM of the test compound solution was prepared. […] In addition, DEX was similarly dissolved, whereby a 100 μM concentration of the DEX solution was prepared, and an IL-6 production inhibitory ratio of DEX was measured, and used for calculation of Efficacy (% DEX).
Used cells: human corneal epithelium cell line (HCE-T) (RIKEN, Institute of Physical and Chemical Research)
The cells continued to subculture according to this method were used for the test. (Test Method and Measurement Method) • 1) The subcultured HCE-T was recovered and the cells were seeded at 2.0×10^4 cells/0.1 mL/well in a 96-well flat bottom culture plate. • 2) After culturing overnight, medium the medium was removed and each 80 μL/well of 10%
FBS-DMEM/Ham's F12 medium was added. • 3) Test compound solution was added with each 10 μL/well. • 4) LPS solution was added with each 10 μL/well. • 5) The sample to which 1% dimethylsulfoxide-containing 10% FBS-DMEM/Ham's F12 medium was added with each 10 μL/well in place of each test compound solution, and 10% FBS-DMEM/Ham's F12 medium was added in place of the LPS solution was made a negative control. • 6) The sample in which 1% dimethylsulfoxide-containing 10% FBS-DMEM/Ham's F12 medium was added with each 10 μL/well in place of each test compound solution was made a positive control. • 7) After completion of 4 hours cultivation, the supernatant was recovered and the amount of IL-6 released in the supernatant was measured by using an HTRF human IL-6 Kit. • 8) The IL-6 production inhibitory ratio was calculated according to the following calculation formula. (Calculation of IL-6 Production Inhibitory Ratio)
The IL-6 production inhibitory ratio (%) was calculated by the following formula. IL-6 production inhibitory ratio (%)=100×{1−(IL-6 produced amount of each test compound solution−average value of IL-6 produced amount of negative control group)/(average value of IL-6 produced amount of positive control group−average value of IL-6 produced amount of negative control group)}(%)
as §1, with “the IL-6” for “a TNFα”, “IL-6” for “TNFα”
In addition, IC50 was calculated according to a conventional method. IDBS XLfit4 was used for the calculation.

Chain of Recombinant human GR (P04150 whole entry): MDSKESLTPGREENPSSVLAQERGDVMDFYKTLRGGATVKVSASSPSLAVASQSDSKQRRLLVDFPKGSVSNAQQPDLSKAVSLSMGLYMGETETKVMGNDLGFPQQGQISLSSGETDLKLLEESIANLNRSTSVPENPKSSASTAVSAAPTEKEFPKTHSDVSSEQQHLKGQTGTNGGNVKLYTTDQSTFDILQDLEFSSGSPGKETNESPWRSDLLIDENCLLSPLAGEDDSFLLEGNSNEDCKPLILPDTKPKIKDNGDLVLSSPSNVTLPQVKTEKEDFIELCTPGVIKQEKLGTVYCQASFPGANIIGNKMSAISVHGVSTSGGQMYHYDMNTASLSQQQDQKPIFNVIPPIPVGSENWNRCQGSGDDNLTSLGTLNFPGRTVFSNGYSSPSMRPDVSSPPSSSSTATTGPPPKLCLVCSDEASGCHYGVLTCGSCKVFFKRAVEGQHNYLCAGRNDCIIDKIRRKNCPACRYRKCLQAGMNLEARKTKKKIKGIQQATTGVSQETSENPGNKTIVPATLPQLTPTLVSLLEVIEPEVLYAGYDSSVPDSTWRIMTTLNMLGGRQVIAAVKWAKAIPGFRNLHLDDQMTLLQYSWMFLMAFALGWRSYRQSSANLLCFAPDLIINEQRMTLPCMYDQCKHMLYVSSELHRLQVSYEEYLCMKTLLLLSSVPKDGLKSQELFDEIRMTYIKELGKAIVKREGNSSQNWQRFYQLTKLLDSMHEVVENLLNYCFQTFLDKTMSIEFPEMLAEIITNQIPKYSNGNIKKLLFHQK

Structure (SMILES)	Emax [1]	inhibition at 10 µM [2]	Inhibitory ratio (%) on elevated vascular permeability [3]	Emax ([4]; 100 μM test compound solution 10 μL/well, DEX treated group = 100, read-out: IL-6 production inhibitory ratio (% DEX))	IC50 ([4]; IL-6 production inhibition)
COc1cc(OC[C@@H](C)O)ccc1-c1ccc2c(c1COc1cc(F)ccc1C)N(C)C(=O)C(C)(C)N2 [Compound 1-3, (R)-8-(5-fluoro-2-methylphenoxymethyl)-7-[4-(2-hydroxypropyl)oxy-2-methoxy-phenyl]-1,3,3-trimethyl-3,4-dihydro-1H-quinoxalin-2-one]	93%	95%			
COc1cc(OC[C@H](C)OC(=O)C2CCCN2)ccc1-c1ccc2c(c1COc1cc(F)ccc1C)N(C)C(=O)C(C)(C)N2.Cl (stereo partly drawn) [Compound 11-2, 8-(5-Fluoro-2-methylphenoxymethyl)-7-[4-[(2S)-[(2S)-pyrrolidylcarbonyloxy]-propyl]oxy-2-methoxyphenyl]-1,3,3-trimethyl-3,4-dihydro-1H-quinoxalin-2-one hydrochloride]			92%		
COc1cc(OC[C@H](O)CCO)ccc1-c1ccc2c(c1COc1cc(F)ccc1C)N(C)C(=O)C(C)(C)N2 [Compound 2-2, (R)-7-[4-(2,4-dihydroxybutyl)oxy-2-methoxyphenyl]-8-(5-fluoro-2-methyl-phenoxymethyl)-1,3,3-trimethyl-3,4-dihydro-1H-quinoxalin-2-one]	95%	91%			
COc1cc(OCC(O)CC(=O)N2CCOCC2)ccc1-c1ccc2c(c1COc1cc(F)ccc1C)N(C)C(=O)C(C)(C)N2 (stereo not drawn) [Compound 10-2, 8-(5-fluoro-2-methylphenoxymethyl)-7-[4-[3-(N-morpholino)carbonyl-2-hydroxypropyl]oxy-2-methoxyphenyl]-1,3,3-trimethyl-3,4-dihydro-1H-quinoxalin-2-one]	> 99%	> 99%			
CC[C@@H](O)COc1ccc(-c2ccc3c(c2COc2cc(F)ccc2C)N(C)C(=O)C(C)(C)N3)c(OC)c1 [Compound 1-4, (R)-8-(5-fluoro-2-methylphenoxymethyl)-7-[4-(2-hydroxybutyl)oxy-2-methoxyphenyl]-1,3,3-trimethyl-3,4-dihydro-1H-quinoxalin-2-one]	94%	> 99%		92%	34 nM
COc1cc(OCC(O)C(F)(F)F)ccc1-c1ccc2c(c1COc1cc(F)ccc1C)N(C)C(=O)C(C)(C)N2 (stereo not drawn) [Compound 1-2, 8-(5-Fluoro-2-methylphenoxymethyl)-7-[4-(2-hydroxy-3,3,3-trifluoro-propyl)oxy-2-methoxyphenyl]-1,3,3-trimethyl-3,4-dihydro-1H-quinoxalin-2-one]	94%				
